Laboratory results taken from paper PMC7883873, “Discovery of New Catalytic Topoisomerase II Inhibitors for Anticancer Therapeutics” (Frontiers in Oncology, 2021).

How the values were obtained:
[1] = test system: AR; experiment: Probasin- and PSA-luciferase reporter in 293T cells; type: cell-based; conditions: 0-20 µM
[2] = test system: HeLa cells; experiment: FACS cell cycle assay; type: cell-based; conditions: 20 µM, 48 h
Experimental: (§1) Cell proliferation rates were measured by using the CellTitre 96 AqueousOne kit (Promega) and bromodeoxyuridine (BrdU) assay kit (Millipore) according to the manufacturer’s protocol as we have described ([51]). Cytotoxicity was evaluated by using the commercial kit (CAT# 8078, ThermoFisher). Culture media was collected and used to measure lactate dehydrogenase (LDH) levels by a colorimetric method following the manufacture’s protocol (ThermoFisher). Cell cycling was assessed by using BrdU incorporation into S-phase DNA by using the APC BrdU flow kit (BD Pharmingen; Franklin Lakes, New Jersey) according to the manufacturer’s protocol. 1 mM of BrdU was added to cells and incubated for 6 h. Cells were incubated with anti-BrdU antibody and stained with 7-AAD before processing the cells for flow cytometry ([52]). Immunoblotting assays followed the standard protocol as we have reported ([51]–[53]).

[3] = test system: K562 cells; experiment: Cell proliferation, MTS assay; type: cell-based; conditions: 0-20 µM, 0-72 h
Experimental: as §1

[4] = test system: AR full-length (AR-fl); experiment: Immunoblotting of AR protein levels; type: cell-based; conditions: LNCaP and LNCaP95 cells, 0-20 µM
Experimental: as §1

[5] = test system: AR-v7; experiment: Immunoblotting of AR protein levels; type: cell-based; conditions: LNCaP and LNCaP95 cells, 0-20 µM
Experimental: as §1

[6] = test system: HeLa cells; experiment: Confocal fluorescence microscopy; type: cell-based; conditions: 20 µM, 48 h
Experimental: Cells were fixed with 4% paraformaldehyde, treated in 0.25% Triton X-100 for 15 min, incubated with F-actin conjugated to Phalloidin-iFluor 488 (Abcam; UK), and mounted with DAPI staining mount (Vector Labs; Burlingame, USA). Cell images were captured by confocal microscopy at 63× magnification (Zeiss; Germany) ([51], [53]).

[7] = test system: HeLa cells; experiment: LDH cytotoxicity assay; type: cell-based; conditions: 0–20 µM, 48 h
Experimental: as §1

[8] = biological target: T1, TOP2B (Homo sapiens, UniProt Q02880); experiment: Chromatin fractionation assay; type: cell-based; design: endogenous in cells; host or cells: K562 (the thermal shift text says HeLa, the legend says K562); K562 for chromatin fractionation; conditions: K562 cells, 0, 1, 20 µM, 24 hours
Experimental: (§2) In the thermal shift assays, cells were treated with vehicle or T60 for 1 h and split into equal aliquots to be heated at 37 to 46°. Protein lyses were collected to perform immunoblotting assays with TOP2 antibodies (Abcam 12318, Santa Cruz sc-13059 & sc-365071). Our chromatin fractionation assays followed the protocol as previously described (Méndez & Stillman, 2000; Wysocka, Reilly, & Herr, 2001). Briefly, K562 cells (4 × 10 ([7]) cells/ml) were collected and re-suspended in buffer A (10 mM HEPES [pH 7.9], 10 mM KCl, 1.5 mM MgCl2, 0.34 M sucrose, 10% glycerol, 1 mM DTT, and protease inhibitor cocktail), before Triton X-100 was added to final concentration at 0.1%. Cells were then incubated on ice for 10 min, and nuclei were collected by centrifugation at speed of 1,300g for 4 min at 4°C. The nuclei were then washed once with buffer A and then incubated with buffer B (3 mM EDTA, 0.2 mM EGTA, 1 mM DTT, and protease inhibitor cocktail [ROCHE]) for 30 min in ice. Insoluble chromatin was collected by centrifugation at 1,700g for 4 min at 4°C, and washed once with buffer B. Chromatin associated proteins were extracted by incubation with Buffer C [500 mM Tris-HCl (pH 6.8), 500 mM NaCl, and protease inhibitor cocktail (ROCHE)] followed by brief sonication. The supernatant was collected to perform immunoblotting assays with TOP2 antibodies as we have described ([51]–[53]).
Target sequence in this assay (Q02880 2-1626 limits assumed): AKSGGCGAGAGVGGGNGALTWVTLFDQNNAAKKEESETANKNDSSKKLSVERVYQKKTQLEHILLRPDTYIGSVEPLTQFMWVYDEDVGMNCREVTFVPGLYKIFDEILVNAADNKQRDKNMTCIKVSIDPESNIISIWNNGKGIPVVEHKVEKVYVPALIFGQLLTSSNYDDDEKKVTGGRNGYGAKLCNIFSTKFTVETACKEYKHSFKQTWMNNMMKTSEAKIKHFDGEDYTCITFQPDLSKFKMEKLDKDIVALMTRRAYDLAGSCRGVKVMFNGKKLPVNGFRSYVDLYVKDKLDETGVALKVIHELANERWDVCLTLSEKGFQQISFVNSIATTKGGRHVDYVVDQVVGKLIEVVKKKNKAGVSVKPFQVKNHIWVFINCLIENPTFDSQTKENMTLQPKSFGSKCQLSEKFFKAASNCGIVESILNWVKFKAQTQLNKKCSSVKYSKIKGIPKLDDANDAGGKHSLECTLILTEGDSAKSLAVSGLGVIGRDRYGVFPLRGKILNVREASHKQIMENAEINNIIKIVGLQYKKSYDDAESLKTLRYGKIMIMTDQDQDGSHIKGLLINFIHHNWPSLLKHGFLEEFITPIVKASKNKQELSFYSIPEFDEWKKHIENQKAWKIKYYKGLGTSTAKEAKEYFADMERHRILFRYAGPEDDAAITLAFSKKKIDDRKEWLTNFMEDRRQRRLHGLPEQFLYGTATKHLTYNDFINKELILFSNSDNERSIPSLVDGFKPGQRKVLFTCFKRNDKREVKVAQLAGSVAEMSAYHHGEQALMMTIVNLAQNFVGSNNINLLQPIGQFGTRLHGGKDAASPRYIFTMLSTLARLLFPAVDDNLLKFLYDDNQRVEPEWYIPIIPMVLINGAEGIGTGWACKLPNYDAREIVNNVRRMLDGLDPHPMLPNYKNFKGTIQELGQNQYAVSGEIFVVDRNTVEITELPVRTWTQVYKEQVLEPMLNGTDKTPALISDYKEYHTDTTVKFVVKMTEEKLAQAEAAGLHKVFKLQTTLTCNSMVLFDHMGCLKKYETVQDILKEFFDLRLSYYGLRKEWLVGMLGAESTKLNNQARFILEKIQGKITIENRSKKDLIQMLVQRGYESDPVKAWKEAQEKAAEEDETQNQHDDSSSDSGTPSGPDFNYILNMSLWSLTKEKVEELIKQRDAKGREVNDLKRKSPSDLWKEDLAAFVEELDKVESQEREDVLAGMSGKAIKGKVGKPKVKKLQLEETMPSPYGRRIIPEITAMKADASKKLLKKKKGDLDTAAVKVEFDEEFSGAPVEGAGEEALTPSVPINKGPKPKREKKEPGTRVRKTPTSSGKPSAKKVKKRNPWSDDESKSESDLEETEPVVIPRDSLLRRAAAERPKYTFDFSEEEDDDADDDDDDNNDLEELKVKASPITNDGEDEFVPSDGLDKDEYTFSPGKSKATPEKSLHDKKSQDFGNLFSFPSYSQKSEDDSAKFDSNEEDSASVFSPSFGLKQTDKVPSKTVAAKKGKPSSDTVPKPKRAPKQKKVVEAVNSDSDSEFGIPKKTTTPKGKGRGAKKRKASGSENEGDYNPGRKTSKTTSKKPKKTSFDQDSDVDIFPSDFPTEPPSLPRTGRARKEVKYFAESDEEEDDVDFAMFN

[9] = biological target: TOP2A (Homo sapiens, UniProt P11388); experiment: Chromatin fractionation assay; type: cell-based; design: endogenous in cells; host or cells: K562 (the thermal shift text says HeLa, the legend says K562); K562 for chromatin fractionation; conditions: K562 cells, 0, 1, 20 µM, 24 hours
Experimental: as §2

[10] = biological target: T1, TOP2B; experiment: K-DNA decatenation assay; type: biochemical; design: full-length human TOP2A and TOP2B protein (TopoGEN and Inspiralis respectively); purchased Inspiralis HTB205; conditions: densitometry of D-DNA bands; read-out: IC50, inhibition of TOP2B K-DNA decatenation
Experimental: The human TOP2 assay kit (#TG1001, TopoGEN, Buena Vista, CO) and TOP2B (HTB205, Inspiralis, UK) were used for K-DNA decatenation assays. […] The reaction was incubated at 37C for 2 h after which 4 µl stop solution (5× buffer is 5% Sarkosyl, 0.125% bromophenol blue, 25% glycerol) was added. The reaction was resolved by electrophoresis on a 0.8% agarose gel at 60 V and stained with 0.5 µg/ml ethidium bromide for 15 min. DNA bands were visualized using a gel imager (Gel Doc™ EZ System) and quantified using the Image Studio™ Lite Quantification Software.
Target sequence in this assay (Q02880 whole entry): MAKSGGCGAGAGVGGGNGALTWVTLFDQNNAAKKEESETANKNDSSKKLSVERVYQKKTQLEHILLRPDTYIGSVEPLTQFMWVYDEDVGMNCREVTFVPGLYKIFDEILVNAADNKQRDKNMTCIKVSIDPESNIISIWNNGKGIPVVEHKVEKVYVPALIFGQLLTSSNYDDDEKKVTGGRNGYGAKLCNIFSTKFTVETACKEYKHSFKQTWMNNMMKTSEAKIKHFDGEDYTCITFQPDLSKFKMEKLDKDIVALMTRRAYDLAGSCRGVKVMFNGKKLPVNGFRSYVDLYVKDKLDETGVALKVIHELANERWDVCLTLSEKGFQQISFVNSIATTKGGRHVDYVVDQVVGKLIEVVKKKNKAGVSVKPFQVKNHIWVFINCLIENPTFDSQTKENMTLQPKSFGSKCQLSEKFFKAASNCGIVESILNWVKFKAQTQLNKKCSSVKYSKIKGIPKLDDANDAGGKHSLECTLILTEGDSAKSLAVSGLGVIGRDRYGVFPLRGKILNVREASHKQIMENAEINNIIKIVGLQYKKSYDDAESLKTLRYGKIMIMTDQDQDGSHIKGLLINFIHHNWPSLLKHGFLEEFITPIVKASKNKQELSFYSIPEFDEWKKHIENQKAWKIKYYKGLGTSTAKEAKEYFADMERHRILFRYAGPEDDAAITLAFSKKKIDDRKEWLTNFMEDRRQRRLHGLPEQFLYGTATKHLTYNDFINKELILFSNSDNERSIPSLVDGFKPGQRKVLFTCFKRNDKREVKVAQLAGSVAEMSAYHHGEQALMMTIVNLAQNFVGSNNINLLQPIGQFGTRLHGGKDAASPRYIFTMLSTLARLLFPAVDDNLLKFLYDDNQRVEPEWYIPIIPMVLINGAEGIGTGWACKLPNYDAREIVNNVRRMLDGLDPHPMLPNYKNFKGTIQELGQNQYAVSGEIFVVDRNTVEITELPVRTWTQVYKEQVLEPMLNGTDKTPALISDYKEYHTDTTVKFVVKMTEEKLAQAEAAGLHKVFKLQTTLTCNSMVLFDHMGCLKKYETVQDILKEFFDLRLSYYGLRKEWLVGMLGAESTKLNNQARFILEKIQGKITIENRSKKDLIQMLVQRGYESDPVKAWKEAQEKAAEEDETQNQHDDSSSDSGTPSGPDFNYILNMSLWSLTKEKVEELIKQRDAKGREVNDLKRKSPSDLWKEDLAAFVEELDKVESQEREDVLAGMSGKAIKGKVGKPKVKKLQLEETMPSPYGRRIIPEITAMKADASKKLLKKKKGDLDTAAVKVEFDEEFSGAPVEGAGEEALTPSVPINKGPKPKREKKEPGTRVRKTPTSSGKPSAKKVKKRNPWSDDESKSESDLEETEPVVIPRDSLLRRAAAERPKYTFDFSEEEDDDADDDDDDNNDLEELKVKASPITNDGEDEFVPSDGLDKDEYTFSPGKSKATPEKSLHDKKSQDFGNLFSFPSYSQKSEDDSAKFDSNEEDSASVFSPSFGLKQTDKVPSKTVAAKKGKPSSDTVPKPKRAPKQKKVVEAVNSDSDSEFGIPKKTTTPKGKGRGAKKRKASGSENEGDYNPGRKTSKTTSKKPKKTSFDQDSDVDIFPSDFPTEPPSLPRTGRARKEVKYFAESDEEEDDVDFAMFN

[11] = biological target: T2, full-length human TOP2B (Homo sapiens, UniProt Q02880); experiment: EMSA with full-length protein; type: binding; conditions: 200 µM; 2 µM protein, 300 nM 5ZRF oligo
T2 construct: full-length human TOP2A and TOP2B protein (TopoGEN and Inspiralis respectively); purchased Inspiralis HTB205
Experimental: (§3) EMSA followed the standard protocols as we and others described with minor modifications ([54]–[56]). The double-strand DNA oligo, 5ZRF (AGCCGAGCTGCAGCTCGGCT labeled by IRDye700) was purchased from IDT (Coralville, USA). Human TOP2 (431–1193), TOP2A (TopoGEN) or TOP2B (Inspiralis) proteins were incubated with 300 nM of 5ZRF oligo in a standard 20 µl EMSA reaction in a reaction buffer containing 20 mM HEPES-NaOH, pH 7.4, 2 mM DTT, 3 mM MgCl2, 0.05% NP-40, protease inhibitors, and 0.1 µg poly[dI:dC]. After incubation for 30 min at 37C, reactions were loaded onto 4% non-denatured polyacrylamide gel in 0.5× TBE buffer. The DNA oligo bands were visualized by using the Li-Cor Odyssey 9120 Infrared Imaging System.

[12] = biological target: T3, full-length human TOP2A (Homo sapiens, UniProt P11388); experiment: EMSA with full-length protein; type: binding; conditions: 200 µM; 2 µM protein, 300 nM 5ZRF oligo
T3 construct: full-length human TOP2A and TOP2B protein (TopoGEN and Inspiralis respectively); purchased TopoGEN TG1001 (human TOP2 assay kit)
Experimental: as §3

Chain of TOP2A (P11388 whole entry): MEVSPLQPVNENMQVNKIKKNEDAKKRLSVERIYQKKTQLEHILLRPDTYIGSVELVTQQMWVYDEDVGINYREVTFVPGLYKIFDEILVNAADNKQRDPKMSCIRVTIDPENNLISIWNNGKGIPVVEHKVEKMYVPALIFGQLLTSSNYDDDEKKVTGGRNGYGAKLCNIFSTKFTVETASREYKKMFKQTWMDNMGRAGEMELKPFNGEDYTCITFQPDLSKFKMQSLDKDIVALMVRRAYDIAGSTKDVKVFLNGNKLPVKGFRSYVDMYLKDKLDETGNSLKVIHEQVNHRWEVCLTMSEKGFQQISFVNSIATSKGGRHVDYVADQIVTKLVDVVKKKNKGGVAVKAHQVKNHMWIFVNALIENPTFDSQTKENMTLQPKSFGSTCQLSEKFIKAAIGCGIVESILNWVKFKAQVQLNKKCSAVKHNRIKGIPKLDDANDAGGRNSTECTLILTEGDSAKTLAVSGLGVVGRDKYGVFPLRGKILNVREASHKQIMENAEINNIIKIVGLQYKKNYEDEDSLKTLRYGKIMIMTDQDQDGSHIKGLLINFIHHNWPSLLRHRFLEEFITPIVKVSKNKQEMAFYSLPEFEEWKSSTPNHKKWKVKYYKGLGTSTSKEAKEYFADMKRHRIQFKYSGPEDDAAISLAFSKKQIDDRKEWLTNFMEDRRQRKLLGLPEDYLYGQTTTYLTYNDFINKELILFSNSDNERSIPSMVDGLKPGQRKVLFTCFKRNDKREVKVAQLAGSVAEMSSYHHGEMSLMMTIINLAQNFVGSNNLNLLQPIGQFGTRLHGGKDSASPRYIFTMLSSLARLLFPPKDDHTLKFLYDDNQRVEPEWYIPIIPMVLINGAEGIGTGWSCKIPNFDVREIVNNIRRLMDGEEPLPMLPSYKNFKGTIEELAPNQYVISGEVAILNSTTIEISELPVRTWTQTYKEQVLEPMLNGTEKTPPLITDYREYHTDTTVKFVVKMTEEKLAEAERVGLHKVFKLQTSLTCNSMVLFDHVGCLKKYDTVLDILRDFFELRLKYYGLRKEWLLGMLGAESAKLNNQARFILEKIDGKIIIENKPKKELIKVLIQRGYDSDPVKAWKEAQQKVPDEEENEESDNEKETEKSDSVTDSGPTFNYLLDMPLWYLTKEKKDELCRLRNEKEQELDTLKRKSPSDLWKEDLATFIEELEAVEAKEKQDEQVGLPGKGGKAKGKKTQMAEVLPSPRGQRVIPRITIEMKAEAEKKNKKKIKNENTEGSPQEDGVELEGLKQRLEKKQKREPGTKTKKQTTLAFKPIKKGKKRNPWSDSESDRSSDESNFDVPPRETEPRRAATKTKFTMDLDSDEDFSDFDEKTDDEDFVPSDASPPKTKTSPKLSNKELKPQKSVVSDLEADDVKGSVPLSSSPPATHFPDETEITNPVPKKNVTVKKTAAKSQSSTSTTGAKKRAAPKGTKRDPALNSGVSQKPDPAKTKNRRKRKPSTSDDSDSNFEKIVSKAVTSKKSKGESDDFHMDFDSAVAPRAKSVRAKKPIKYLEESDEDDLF
T3 sequence (P11388 whole entry): as above
T2 sequence (Q02880 whole entry): as the sequence (Q02880 whole entry) above

With `O=C(Nc1ccc(Nc2ccccc2)cc1)c1ccc[nH]c1=S` [T60] the “Luciferase activities driven by probasin and PSA promoters, AR” value [1] was “inhibited luciferase activities”, the Cell cycle distribution [2] was “reduced at the G1 phase, but accumulated at S and G2/M phases” and the K562 cell proliferation [3] was “inhibited K562 cell proliferation in a dose- and time-dependent manner”. For the same compound, the “Protein levels of AR full-length” value [4] was “inhibited the protein levels”, the “Protein levels of AR-v7” value [5] was “inhibited the protein levels” and the Cell morphology [6] was “enlarged cell bodies and nuclei”. For the same compound, the “Cytotoxicity (LDH release)” value [7] was “low cytotoxicity”, the “TOP2B association with chromatin” value [8] was “reduced” and the “TOP2A association with chromatin” value [9] was “reduced”. The IC50 [10] was roughly 3 µM, the “Interruption of mobility retarded band, full-length TOP2B” value [11] was “interrupted” and the “Interruption of mobility retarded band, full-length TOP2A” value [12] was “interrupted”.
